The source of these data is patent US20260055107A1, “SERIES OF NITROGEN-CONTAINING BRIDGED HETEROCYCLIC COMPOUNDS AND PREPARATION METHOD THEREFOR” (CMS RESEARCH & DEVELOPMENT PTE. LTD., priority 2022, published 2026).

pKd: −log10 of the molar value.

Series [1] can be described thus: Plasma protein binding rate test (equilibrium dialysis), mouse. The series is classed as in vitro ADME, CD-1 mice. To be noted: 2 μM, equilibrium dialysis 37° C. 4 hours, CD-1 mouse plasma. How it is done:
(§1) Experimental purpose: To evaluate the protein binding rate of the compounds of the present disclosure in the plasma of CD-1 mice, SD rats, beagle dogs, cynomolgus monkeys and humans using equilibrium dialysis.
(§2) The test compounds were diluted with dialysis buffer into the plasma of the above five species to prepare samples with a final concentration of 2 μM. The samples were then added to a 96-well equilibrium dialysis device and dialyzed using phosphate buffered saline solution at 37° C. for 4 hours. Warfarin was used as a control compound in the experiment. The concentration of the test compounds and warfarin in the plasma and buffer was determined using LC-MS/MS. The free fraction of the compound was calculated by the following formula: PPB_Unbound (%)=100*FC/TC, where FC is the concentration of the compound at the buffer end of the dialysis plate; TC is the concentration of the compound at the plasma end of the dialysis plate; To is the concentration of the compound in the plasma sample at time zero.

Series [2] can be described thus: Pharmacokinetic study in rats. It is filed as in vivo, Male SD rats. To be noted: rat. How it is done:
Male SD rats (6 to 8 weeks old, weighing 200 to 300 g) were selected.
Injection administration (IV) was carried out at a dose of 1 mpk and a concentration of 0.20 mg/mL with a vehicle of 20% PEG400/10% solutol/70% water. Oral administration (PO) was carried out at a dose of 10 mpk and a concentration of 1 mg/mL with a vehicle of 20% PEG400/10% solutol/70% water.
Sample collection: 0.03 mL of blood samples were collected by puncture of the saphenous vein in experimental animals at each time point, and the actual blood collection time was recorded.
All blood samples were added to commercial 1.5 mL EDTA-K2 anticoagulant tubes. After blood sample collection, DDV was added into the plasma matrix as a stabilizer, wherein the ratio of plasma to Dichlorvos (DDV) solution was 40:1. The DDV solution was a 40 mM DDV solution in acetonitrile/water (1:1). Within half an hour, the mixture was centrifuged at 4° C. and 3000 g for 10 minutes. The supernatant plasma was aspirated, quickly placed in dry ice and stored in a −80° C. refrigerator for LC-MS/MS analysis.
A non-compartmental model in Phoenix WinNonlin 6.3 pharmacokinetic software was used to process the plasma concentration data. The pharmacokinetic parameters were calculated using the linear-log trapezoidal method. C0: concentration needed immediately after intravenous injection; Cmax: the highest plasma drug concentration after administration; Tmax: time needed to reach drug peak concentration after administration; T1/2: time needed for plasma drug concentration to decrease by half; Vdss: apparent volume of distribution, refers to the proportional constant between the amount of drug in the body and the plasma drug concentration when the drug reaches dynamic equilibrium in the body. Cl: clearance rate, refers to the apparent volume of distribution of the drug cleared from the body per unit time; AUC0-last: area under the drug time curve, refers to the area surrounded by the plasma drug concentration curve against the time axis; F: bioavailability.

Series [3] in a line: Plasma protein binding rate test (equilibrium dialysis), dog. The series is classed as in vitro ADME, beagle dogs. To be noted: 2 μM, equilibrium dialysis 37° C. 4 hours, beagle dog plasma. The protocol:
as §1, §2

Series [4] can be described thus: Plasma protein binding rate test (equilibrium dialysis), cynomolgus monkey. It is filed as in vitro ADME, cynomolgus monkeys. To be noted: 2 μM, equilibrium dialysis 37° C. 4 hours. How it is done:
as §1, §2

A short description of series [5]: Plasma protein binding rate test (equilibrium dialysis), rat. It is filed as in vitro ADME, SD rats. The settings on record: 2 μM, equilibrium dialysis 37° C. 4 hours, SD rat plasma. The protocol:
as §1, §2

Series [6] can be described thus: Plasma protein binding rate test (equilibrium dialysis), human. It is filed as in vitro ADME. The settings on record: 2 μM, equilibrium dialysis 37° C. 4 hours. How it is done: as §1, §2
The subject of a further series is Caco-2 cells. Put plainly: In vitro Caco-2 cell permeability test. The series is classed as in vitro ADME. To be noted: Caco-2, 2 μM, 120 minutes; for Apparent permeability coefficient: pH 7.40, direction not given; for Efflux ratio: Papp(BA)/Papp(AB). The protocol: Cell culture was performed using MEM (minimum essential medium) supplemented with 2 mM L-glutamine, 10% fetal bovine serum (FBS), 100 U/mL penicillin-G and 100 μg/mL streptomycin. Cell culture conditions were 37±1° C., 5% CO2 and saturated humidity. When the cells reached a density of 80 to 90%, trypsin (0.05%, w/v)/EDTA (0.02%, w/v) digestion solution was added to digest the cells before seeding the plate. Cells were seeded in BD Falcon Transwell-96 well plates at a seeding density of 1×10^5 cells/cm^2. The cells were incubated in a carbon dioxide incubator for 22 days and then used for transport experiments.
Hank's balanced salt buffer (pH 7.40±0.05) containing 10 mM HEPES was used as the transport buffer in this project. The bidirectional transport of the test compound and the positive drug digoxin was tested at a concentration of 2 μM, with two parallel samples each, and the transport of fenoterol and propranolol from the apical to the basal end (A-B) was tested. The concentration of DMSO in the incubation system was controlled to 1% or less. After loading the sample, the cell plate was incubated at 37±1° C., 5% CO2 and saturated humidity for 120 minutes. All samples were vortexed and centrifuged at 3220 rpm and 20° C. for 20 minutes. The control sample and test sample were diluted in a 1:1 (v/v) ratio with ultrapure water and stored at 4° C., and the analytical tests were performed by liquid chromatography tandem mass spectrometry (LC/MS/MS).
In this study, the liquid chromatography tandem mass spectrometry (LC/MS/MS) method was used to semi-quantitatively analyze the peak area ratios of the test compounds and control samples fenoterol, propranolol and digoxin to the internal standard in the starting solution, receiving solution and administration well supernatant. The apparent permeability coefficient (Papp, cm/s), efflux rate and recovery rate were calculated using the following formula: • (1) Papp=(dCr/dt)×Vr/(A×C0), dCr/dt is the cumulative concentration of the compound at the receiving end per unit time (μM/s); Vr is the volume of the solution at the receiving end (0.075 mL and 0.250 mL for the solution at the apical and basal ends, respectively); A is the relative surface area of the cell monolayer (0.0804 cm^2); C0 is the starting concentration (nM) of the test sample at the administration end or the peak area ratio of the control sample. • (2) Efflux ratio=Papp(BA)/Papp(AB) • (3) Recovery rate (%)=100×[(Vr×Cr)+(Vd×Cd)]/(Vd×C0), C0 is the starting concentration (nM) of the test sample at the administration end or the peak area ratio of the control sample; Vd is the volume at the administration end (0.075 mL on the apical side and 0.250 mL on the basal side); Cd and Cr are the final concentration (nM) of the test sample or the peak area ratio of the control sample at the administration and receiving ends, respectively.

The target of series [7] is human complement Factor B protein (Homo sapiens (Human), UniProt P00751). Description: Complement human Factor B protein binding test (SPR method). To be noted: Biacore 8K, 1:1 Binding Kinetics Model. The protocol:
Experimental purpose: To detect the kinetic constants and affinity of the binding between the test compounds and human complement Factor B using the SPR method.
1-Ethyl-3-(3-dimethylaminopropyl) carbodiimide hydrochloride (EDC) and N-hydroxysulfosuccinimide sodium salt (NHS) were mixed in a 1:1 ratio, and complement Factor B was diluted to 20 μg/mL in acetic acid solution with a pH of 5.5. Using a biomacromolecule interaction analyzer Biacore 8K, the programmed settings were set to add the EDC/NHS, the FB protein solution and the 1 M ethanolamine-hydrochloric acid solution to the detection plate. The detection plate was placed in the machine detection chamber, and the EDC/NHS mixture, the complement Factor B protein solution and the 1 M ethanolamine-hydrochloric acid solution were sequentially injected onto the surface of the CM5 chip according to the procedure for chip activation, ligand coupling and deactivation. The flow cell 1 of each channel was used as a reference channel for surface activation and deactivation only, without injection of complement Factor B protein solution. All sample stock solutions were diluted with running buffer (PBST), and all samples were serially diluted 2 times in duplicate for 6 points. The prepared sample was transferred to the detection plate according to the program settings and the detection plate was placed in the sample chamber of Biacore 8K. The detection program was run, and the samples were injected into each channel of the chip sequentially according to the program, with a binding time of 120 s, a dissociation time of 600 s and a flow rate of 30 μL/min. The data were analyzed using Biacore Insight Evaluation Software: The data were fitted using a 1:1 Binding Kinetics Model to obtain the binding rate constant (kon), dissociation rate constant (koff) and dissociation equilibrium constant (KD) for binding of each test sample to complement Factor B protein.

The nature of series [8]: In vitro liver microsomal stability test. It is filed as in vitro ADME, human. To be noted: 1 μM compound, 0.5 mg/mL liver microsomes, NADPH. The protocol: Liver microsomes: purchased from Corning or Xenotech, stored in a −80° C. refrigerator; reduced nicotinamide adenine dinucleotide phosphate (NADPH), supplier: Chem-Impex International, Cat. No.: 00616; control compounds: testosterone, diclofenac, propafenone.
Stock solution: 10 mM DMSO solution; preparation of working concentration: The stock solution was diluted to 100 μM using 100% acetonitrile (organic phase content: 99% acetonitrile, 1% DMSO).
Two 96-well incubation plates were prepared and named as T60 incubation plate and NCF60 incubation plate.
445 μL of microsomal working solution (liver microsomal protein concentration of 0.56 mg/mL) was added to both the T60 incubation plate and the NCF60 incubation plate. The two incubation plates were pre-incubated in a 37° C. water bath for approximately 10 minutes.
After pre-incubation was completed, 5 μL of the test compound or control compound working solution was added to both the T60 incubation plate and the NCF60 incubation plate and mixed well. 50 μL of potassium phosphate buffer per well was added to the NCF60 incubation plate to initiate the reaction. 180 μL of termination solution (acetonitrile solution containing 200 ng/mL tolbutamide and 200 ng/mL labetalol) and 6 μL of NADPH regeneration system working solution were added to a TO termination plate. […]

Chain of human complement Factor B protein (P00751 26-764): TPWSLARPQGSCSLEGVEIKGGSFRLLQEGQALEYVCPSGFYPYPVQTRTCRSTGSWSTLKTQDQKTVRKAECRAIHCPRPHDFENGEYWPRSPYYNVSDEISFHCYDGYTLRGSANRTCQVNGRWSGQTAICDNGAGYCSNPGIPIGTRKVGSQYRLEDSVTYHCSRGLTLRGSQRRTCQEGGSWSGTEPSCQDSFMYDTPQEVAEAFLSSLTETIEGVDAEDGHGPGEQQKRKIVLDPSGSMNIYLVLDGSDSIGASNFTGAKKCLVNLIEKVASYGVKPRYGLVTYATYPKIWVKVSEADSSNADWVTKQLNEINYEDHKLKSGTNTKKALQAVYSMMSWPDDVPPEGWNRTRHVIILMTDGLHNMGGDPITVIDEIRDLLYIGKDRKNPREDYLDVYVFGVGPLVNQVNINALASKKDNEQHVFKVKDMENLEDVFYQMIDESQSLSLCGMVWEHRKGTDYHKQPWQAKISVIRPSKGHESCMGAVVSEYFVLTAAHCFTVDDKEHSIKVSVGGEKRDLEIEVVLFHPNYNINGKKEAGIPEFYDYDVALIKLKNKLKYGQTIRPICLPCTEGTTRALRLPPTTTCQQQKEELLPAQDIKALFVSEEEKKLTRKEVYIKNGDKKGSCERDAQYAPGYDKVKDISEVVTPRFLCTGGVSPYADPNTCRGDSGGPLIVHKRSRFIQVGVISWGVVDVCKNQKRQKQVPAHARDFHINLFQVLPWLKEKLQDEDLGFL

Regarding `COc1cc(C)c2[nH]ccc2c1CN1C2CCC1(c1ccc(C(=O)O)cc1)CC(SC)C2.O=CO` (single isomer, unassigned) [Compound 2B], the “Plasma protein binding (PPB) unbound, Mouse (M)” value in series [1] is given as 22.2%. In series [2] (IV 1 mpk), this compound came in with an AUC0-last of 5.645 µM·h, a C0 of 5.81 µM, a Cl of 6.5 mL/min/kg and a T1/2 of 1.16 h. In addition, the Vdss in series [2] (IV 1 mpk) is on record as 0.55 L/kg. For the same compound, in series [2] (PO 10 mpk), the AUC0-last worked out at 28.425 µM·h, the highest concentration (Cmax) turned out to be 9.03 µM, the T1/2 stood at 11.7 h and the time of peak concentration (Tmax) was determined as 0.50 h. Further, the F in series [2] (PO 10 mpk vs IV 1 mpk) is 50.4%. Further, the “Plasma protein binding (PPB) unbound, Dog (D)” value in series [3] is on record as 31.7%. Also, the “Plasma protein binding (PPB) unbound, Cynomolgus monkey (C)” value in series [4] is 25.6%. For the same compound, in series [5], the “Plasma protein binding (PPB) unbound, Rat (R)” value amounted to 15.1%. Besides, the “Plasma protein binding (PPB) unbound, Human (H)” value in series [6] amounted to 21.7%. Besides, in the series with Caco-2 cells, the Apparent permeability coefficient is reported as 1.56 10^−6 cm/s and the Efflux ratio is given as 15.8. The compound further had a pKd in series [7] above 7.00.
On to `COc1cc(C)c2[nH]ccc2c1CN1[C@@H]2CC[C@@]1(c1ccc(C(=O)O)cc1)C[C@@H](SC)C2` [Compound 2A], for which the negative logarithm of the Kd (pKd) in [7] is above 7.00.
The same measure, in the same setting: for `COc1cc(C)c2[nH]ccc2c1CN1[C@@H]2CC[C@@]1(c1ccc(C(=O)O)cc1)C[C@H](C1CC1)C2` [Compound 3A] the value was above 7.00.
In turn, `CCS[C@H]1C[C@H]2CC[C@@](c3ccc(C(=O)O)cc3)(C1)N2Cc1c(OC)cc(C)c2[nH]ccc12` [Compound 1A] had a negative-log Kd (pKd) in series [7] above 7.00.
`CCSC1CC2CCC(c3ccc(C(=O)O)cc3)(C1)N2Cc1c(OC)cc(C)c2[nH]ccc12.O=CO` (single isomer, unassigned) [Compound 1B]: the “Plasma protein binding (PPB) unbound, Mouse (M)” value in series [1] is reported as 12.5%. Besides, the “Human liver microsomal stability CLint” value in series [8] was below 15 mL/min/kg. Further, in series [3], the “Plasma protein binding (PPB) unbound, Dog (D)” value was found to be 16.2%. Moreover, the “Plasma protein binding (PPB) unbound, Cynomolgus monkey (C)” value in series [4] is 17.4%. In addition, in series [5], the “Plasma protein binding (PPB) unbound, Rat (R)” value is given as 11.6%. Also, the “Plasma protein binding (PPB) unbound, Human (H)” value in series [6] came out at 13.3%. Besides, in the series with Caco-2 cells, the Apparent permeability coefficient is reported as 1.19 10^−6 cm/s and the Efflux ratio is 26.1. The compound also showed a negative logarithm of the Kd (pKd) in [7] above 7.00.
